Data as given in patent US20140350119A1, “OPHTHALMIC COMPOSITION COMPRISING GERANYLGERANYLACETONE” (ROHTO PHARMACEUTICAL CO., LTD., priority 2012, published 2014).

Columns and labels:
ARPE-19 = assay: Protective effect for retinal pigment epithelial cells against oxidative stress by hydrogen peroxide; assay type: cell-based, human; conditions: all-trans form content 280 μM, 14 hours, then 750 μM hydrogen peroxide 2 hours, FIG. 4, n=3
Text: The involvement of oxidative stress in ophthalmologic diseases has been widely reported. Such involvement has been observed in, in addition to glaucoma and cataract, retinal diseases such as retinal diseases due to diabetes, hypertension, hyperlipemia, etc., age-related macular degeneration, retinopathy of prematurity, retinal vascular occlusion, retinal light damage, etc. (Nippon Ganka Gakkai Zasshi. 112, 22-29 (2008)). In the retina, the retinal pigment epithelium exists in an environment in which reactive oxygen easily generates (Invest Opthalmol Vis Sci. 2006 July 47(7): 3164-3177.). […]
After 2 hours of incubation, the cell culture supernatant was removed, and 200 μL of PBS was added to each well and promptly removed. Then, 100 μL of an equivalent mixture of a cell viability detection reagent Cell Titer-Glo (Promega) and PBS was added to each well and the luminescence produced by the reaction with ATP in living cells was measured with a luminometer (GloMax; Promega). The cell viability was calculated from the measured luminescence by the following formula and the cytoprotective effect of GGA against oxidative stress by hydrogen peroxide was examined.
Cell viability (%)=100×[(luminescence of base- or GGA-treated group)/(luminescence of non-treated group)]

[1] = tested on: IL-8 production by TNF-α in ARPE-19; assay: Inhibitory effect on IL-8 production by TNF-α from retinal pigment epithelial cells; assay type: cell-based, human; conditions: all-trans form content 50 μM, 16 hours, TNF-α 4 hours, FIG. 5, n=3
Text: Age-related macular degeneration is known to involve the accumulation of drusen under the retinal pigment epithelium. Drusen attract macrophages and macrophages secrete TNF-α. TNF-α acts on the retinal pigment epithelium and its peripheral tissue, and the cells subsequently produce a variety of cytokines and cause inflammation (Mol Vis. 2008 14: 2292-303). A typical cytokine that is involved in neutrophil migration and spreads inflammation is interleukin-8 (IL-8). In this experiment, the inhibitory effect of GGA on IL-8 production by TNF-α was examined using a human-derived retinal pigment epithelial cell line, ARPE-19. […]
After 4 hours of incubation, 150 μL of the cell culture supernatant was collected and stored at −80° C. […] Then, 100 μL of an equivalent mixture of a cell viability detection reagent Cell Titer-Glo and PBS was added to each well and the luminescence produced by the reaction with ATP in living cells was measured with a luminometer. From the measured luminescence, the cell viability was calculated by the following formula.
Cell viability (%)=100×[(luminescence of GGA-treated group)/(luminescence of base-treated group)]
The stored cell culture supernatant was allowed to warm to room temperature, and the IL-8 concentration was quantified with Human CXCL8/IL-8 Quantikine ELISA Kit (R&D Systems). […]

CC(=O)CC/C=C(\C)CC/C=C(\C)CC/C=C(\C)CCC=C(C)C [all-trans form, (5E,9E,13E)-6,10,14,18-tetramethyl-5,9,13,17-nonadecatetrae n-2-one]
Cell viability compared with base-treated group (ARPE-19): significantly higher cell viabilities | Inhibitory effect on IL-8 production compared with GGA 6:4 [1]: significant inhibitory effect on IL-8 production
